Assay results reported in ChEMBL document CHEMBL1201862, “PubChem BioAssay data set” (2004).
The source made the active and inactive calls.

Experiments:
[1] = biological target: T1, Tyrosyl-DNA phosphodiesterase 2 (Homo sapiens, UniProt O95551); experiment: human TDP2 enzyme inhibitors, dose response, biochemical, epi absorbance, IC50 (AID 743297)
T1 sequence (O95551 whole entry): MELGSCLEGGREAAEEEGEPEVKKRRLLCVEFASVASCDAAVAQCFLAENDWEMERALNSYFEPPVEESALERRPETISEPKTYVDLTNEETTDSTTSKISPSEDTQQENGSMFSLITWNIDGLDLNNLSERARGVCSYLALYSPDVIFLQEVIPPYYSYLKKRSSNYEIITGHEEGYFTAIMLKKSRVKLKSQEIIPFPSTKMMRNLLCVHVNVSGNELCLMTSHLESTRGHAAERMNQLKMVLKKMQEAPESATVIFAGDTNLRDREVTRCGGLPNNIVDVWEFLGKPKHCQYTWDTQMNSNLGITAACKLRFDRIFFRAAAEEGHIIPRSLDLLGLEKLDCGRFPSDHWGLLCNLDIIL

[2] = biological target: T2, Corticotropin-releasing factor receptor 2/Corticotropin-releasing factor-binding protein (Homo sapiens, UniProt P24387+Q13324); experiment: activators of CRF receptor 2 with binding protein – uHTS hits, confirmation (AID 602473); type: functional; details: read-out: EC50_Mean
T2 sequence (Q13324 whole entry): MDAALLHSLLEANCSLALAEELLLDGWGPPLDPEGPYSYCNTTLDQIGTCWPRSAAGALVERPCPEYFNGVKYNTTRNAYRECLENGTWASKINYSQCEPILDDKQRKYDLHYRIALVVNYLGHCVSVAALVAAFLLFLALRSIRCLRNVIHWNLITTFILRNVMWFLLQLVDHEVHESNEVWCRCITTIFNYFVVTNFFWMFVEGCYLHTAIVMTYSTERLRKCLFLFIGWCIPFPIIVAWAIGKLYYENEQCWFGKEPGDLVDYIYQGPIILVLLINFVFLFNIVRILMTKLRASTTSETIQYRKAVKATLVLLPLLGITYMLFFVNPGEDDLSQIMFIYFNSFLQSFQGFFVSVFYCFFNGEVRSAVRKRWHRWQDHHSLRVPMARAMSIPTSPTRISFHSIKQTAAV
T2 sequence (P24387 whole entry): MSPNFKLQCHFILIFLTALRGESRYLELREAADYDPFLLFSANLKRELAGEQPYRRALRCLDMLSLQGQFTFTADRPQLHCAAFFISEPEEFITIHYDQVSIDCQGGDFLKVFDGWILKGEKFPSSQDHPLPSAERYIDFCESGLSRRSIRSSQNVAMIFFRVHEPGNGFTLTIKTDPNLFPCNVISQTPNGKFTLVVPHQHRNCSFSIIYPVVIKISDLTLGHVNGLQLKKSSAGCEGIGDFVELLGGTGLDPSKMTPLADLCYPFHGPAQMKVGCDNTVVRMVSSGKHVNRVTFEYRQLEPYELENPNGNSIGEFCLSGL

[3] = biological target: T2, Corticotropin-releasing factor receptor 2/Corticotropin-releasing factor-binding protein; experiment: Dose Response confirmation of uHTS hits for small molecule antagonists of the CRF-binding protein and CRF-R2 receptor complex.; type: functional; details: read-out: IC50_Mean
[4] = CRF-BP/CRF-R2 complex antagonists, dose response, cell-based, uHTS hits, 384-well (AID 651639); type: functional, Homo sapiens; details: read-out: IC50_Mean
[5] = biological target: Peroxisome proliferator-activated receptor gamma/Nuclear receptor coactivator 2 (Homo sapiens, UniProt P37231); experiment: (§1) TR-FRET dose response biochemical High Throughput Screening assay for agonists of the steroid receptor coactivator 2 (SRC-2) recruitment by the peroxisome proliferator-activated receptor gamma (PPAR gamma): non-selective agonists. [Related pubchem assays: 1297, 1032 ]; type: functional
[6] = biological target: Peroxisome proliferator-activated receptor gamma/Nuclear receptor coactivator 1 (Homo sapiens, UniProt P37231); experiment: as §1, with “1 (SRC-1)” for “2 (SRC-2)”, “assays (depositor defined):AID1300, AID1808, AID504735, AID631]” for “assays: 1297, 1032 ]”; type: protein assay
[7] = biological target: Peroxisome proliferator-activated receptor gamma/Nuclear receptor coactivator 3 (Homo sapiens, UniProt P37231); experiment: as §1, with “3 (SRC-3)” for “2 (SRC-2)”, “1301 (Confirmation screen.), 1048 (Primary screen.)]” for “1297, 1032 ]”; type: functional
[8] = Luminescence Cell-Based Dose Confirmation HTS to Identify Inhibitors of Platelet Dense Granule Release. [Related pubchem assays: 1663 (Primary HTS), 1678 (Summary of Project)]; type: functional
[9] = biological target: Luciferin 4-monooxygenase (Photinus pyralis, UniProt P08659); experiment: firefly luciferase enzyme inhibitors, dose response, biochemical, luminescence (AID 1891)
[10] = non-specific cell cytotoxicity, dose response, cytotoxicity control for PAX8 inhibitor project, plate reader, dry powder samples (AID 743021); type: functional, cell-based
[11] = biological target: Paired box protein Pax-8 (Homo sapiens, UniProt Q06710); experiment: inhibitors of PAX8-driven TPO luciferase reporter, dose response, RMG-I cells, cherry-pick (AID 687027); type: functional, cell-based;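 also: luciferase reporter driven by Pax8 target thyroperoxidase promoter measured by SteadyGlo luminescence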
[12] = biological target: Heat shock protein HSP 90-alpha (Homo sapiens, UniProt P07900); type: functional, organism-based
[13] = test system: Streptococcus; experiment: Group A Streptococcus viability loss, dose response, counter-screen for streptokinase expression inhibitor project, luminescence, BacTiterGlo (AID 1915); type: functional, organism-based;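 also: potency for reduction of bacterial viability or growth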
[14] = test system: Streptococcus sp. 'group A'; experiment: growth inhibition of control SK(-) GAS strain, dose response, counter-screen for streptokinase expression inhibitor project, luminescence, kanamycin, BacTiterGlo, confirmation (AID 1900); type: functional, organism-based
[15] = inhibitors of clade B AD8 Env fusion, dose response, cell-based, cherry-pick (AID 652062); type: functional;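 also: luciferase signal from cell-cell fusion driven by HIV-1 clade B AD8 Env; potency is for inhibitors of fusion seen as a drop in luminescence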
[16] = inhibitors of HIV Env-driven cell fusion, dose response, cherry-pick (AID 652057); type: functional, cell-based
[17] = off-target signal loss in HeLa-CEM21 co-culture – HeLa F-luc CTL cells, cherry-picked, counter-screen for HIV-1 Env fusion inhibitor project, dose response (AID 652040); type: functional, cell-based;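 also: potency for signal decrease marking cytotoxic or nonspecific inhibition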
[18] = ZM109 Env clade C HIV-1 fusion inhibitors, dose response, HeLa effector, CEM target cells, luciferase, cherry-pick (AID 652058); type: functional, cell-based
[19] = biological target: T3, Aminopeptidase N (Plasmodium falciparum FcB1/Columbia, UniProt O96935); experiment: P. falciparum M1AAP inhibitors, biochemical, fluorogenic H-Leu-NHMec substrate, 1536-well (AID 1445); parameters: species or system Plasmodium falciparum 3D7, 3D7
T3 sequence (O96935 whole entry): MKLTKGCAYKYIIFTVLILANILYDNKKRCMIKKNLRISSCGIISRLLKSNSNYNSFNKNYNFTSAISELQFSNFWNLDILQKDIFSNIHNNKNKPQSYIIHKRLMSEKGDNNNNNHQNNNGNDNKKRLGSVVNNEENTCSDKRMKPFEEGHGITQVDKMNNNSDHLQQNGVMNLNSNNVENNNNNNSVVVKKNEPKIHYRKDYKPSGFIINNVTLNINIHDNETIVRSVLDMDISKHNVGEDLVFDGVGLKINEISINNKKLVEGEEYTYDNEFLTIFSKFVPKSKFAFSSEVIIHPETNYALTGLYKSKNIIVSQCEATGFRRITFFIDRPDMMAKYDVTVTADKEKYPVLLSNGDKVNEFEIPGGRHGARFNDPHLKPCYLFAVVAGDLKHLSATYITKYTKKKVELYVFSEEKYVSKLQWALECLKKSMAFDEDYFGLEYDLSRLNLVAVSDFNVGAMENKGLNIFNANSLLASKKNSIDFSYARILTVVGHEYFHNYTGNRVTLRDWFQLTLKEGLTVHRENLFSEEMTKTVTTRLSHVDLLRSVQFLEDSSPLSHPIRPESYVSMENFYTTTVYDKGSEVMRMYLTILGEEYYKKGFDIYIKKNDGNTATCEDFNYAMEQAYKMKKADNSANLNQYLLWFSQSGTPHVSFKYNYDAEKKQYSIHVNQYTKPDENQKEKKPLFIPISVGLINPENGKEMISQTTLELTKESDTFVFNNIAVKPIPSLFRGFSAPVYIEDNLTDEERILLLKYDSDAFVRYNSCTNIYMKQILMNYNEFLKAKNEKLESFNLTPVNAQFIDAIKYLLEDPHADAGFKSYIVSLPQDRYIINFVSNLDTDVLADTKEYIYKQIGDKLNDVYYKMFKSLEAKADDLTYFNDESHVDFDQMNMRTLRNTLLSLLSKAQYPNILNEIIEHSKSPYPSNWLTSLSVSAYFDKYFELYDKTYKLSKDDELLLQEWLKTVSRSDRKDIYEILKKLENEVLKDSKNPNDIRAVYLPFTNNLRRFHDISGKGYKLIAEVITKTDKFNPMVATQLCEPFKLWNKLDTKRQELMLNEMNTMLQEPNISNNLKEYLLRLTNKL

[20] = biological target: Large T antigen (Simian virus 40, UniProt P03070); type: functional, Betapolyomavirus macacae;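 also: Confirmatory-stage PubChem screen for compounds that inhibit SV40 T antigen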
[21] = Luminescence Cell-Based Dose Retest to Confirm Inhibitors of Cancer Stem Cells. [Related pubchem assays (depositor defined):AID2717, AID2721]; type: functional; details: Homo sapiens

Sequence of Peroxisome proliferator-activated receptor gamma/Nuclear receptor coactivator 1 (P37231 whole entry): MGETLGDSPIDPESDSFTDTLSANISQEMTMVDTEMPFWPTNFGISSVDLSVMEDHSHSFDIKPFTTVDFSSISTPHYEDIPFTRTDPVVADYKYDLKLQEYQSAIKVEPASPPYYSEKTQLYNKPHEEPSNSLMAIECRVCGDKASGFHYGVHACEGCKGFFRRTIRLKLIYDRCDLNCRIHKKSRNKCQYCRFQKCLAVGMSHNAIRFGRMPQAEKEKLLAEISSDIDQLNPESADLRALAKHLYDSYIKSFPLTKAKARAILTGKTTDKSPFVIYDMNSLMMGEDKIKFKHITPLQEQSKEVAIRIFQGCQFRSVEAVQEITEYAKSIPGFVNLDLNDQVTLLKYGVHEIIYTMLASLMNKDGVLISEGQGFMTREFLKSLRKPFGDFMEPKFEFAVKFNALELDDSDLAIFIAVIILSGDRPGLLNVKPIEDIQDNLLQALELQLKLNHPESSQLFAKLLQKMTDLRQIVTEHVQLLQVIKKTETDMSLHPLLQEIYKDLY
Sequence of Peroxisome proliferator-activated receptor gamma/Nuclear receptor coactivator 1 (Q15788 whole entry, further chain): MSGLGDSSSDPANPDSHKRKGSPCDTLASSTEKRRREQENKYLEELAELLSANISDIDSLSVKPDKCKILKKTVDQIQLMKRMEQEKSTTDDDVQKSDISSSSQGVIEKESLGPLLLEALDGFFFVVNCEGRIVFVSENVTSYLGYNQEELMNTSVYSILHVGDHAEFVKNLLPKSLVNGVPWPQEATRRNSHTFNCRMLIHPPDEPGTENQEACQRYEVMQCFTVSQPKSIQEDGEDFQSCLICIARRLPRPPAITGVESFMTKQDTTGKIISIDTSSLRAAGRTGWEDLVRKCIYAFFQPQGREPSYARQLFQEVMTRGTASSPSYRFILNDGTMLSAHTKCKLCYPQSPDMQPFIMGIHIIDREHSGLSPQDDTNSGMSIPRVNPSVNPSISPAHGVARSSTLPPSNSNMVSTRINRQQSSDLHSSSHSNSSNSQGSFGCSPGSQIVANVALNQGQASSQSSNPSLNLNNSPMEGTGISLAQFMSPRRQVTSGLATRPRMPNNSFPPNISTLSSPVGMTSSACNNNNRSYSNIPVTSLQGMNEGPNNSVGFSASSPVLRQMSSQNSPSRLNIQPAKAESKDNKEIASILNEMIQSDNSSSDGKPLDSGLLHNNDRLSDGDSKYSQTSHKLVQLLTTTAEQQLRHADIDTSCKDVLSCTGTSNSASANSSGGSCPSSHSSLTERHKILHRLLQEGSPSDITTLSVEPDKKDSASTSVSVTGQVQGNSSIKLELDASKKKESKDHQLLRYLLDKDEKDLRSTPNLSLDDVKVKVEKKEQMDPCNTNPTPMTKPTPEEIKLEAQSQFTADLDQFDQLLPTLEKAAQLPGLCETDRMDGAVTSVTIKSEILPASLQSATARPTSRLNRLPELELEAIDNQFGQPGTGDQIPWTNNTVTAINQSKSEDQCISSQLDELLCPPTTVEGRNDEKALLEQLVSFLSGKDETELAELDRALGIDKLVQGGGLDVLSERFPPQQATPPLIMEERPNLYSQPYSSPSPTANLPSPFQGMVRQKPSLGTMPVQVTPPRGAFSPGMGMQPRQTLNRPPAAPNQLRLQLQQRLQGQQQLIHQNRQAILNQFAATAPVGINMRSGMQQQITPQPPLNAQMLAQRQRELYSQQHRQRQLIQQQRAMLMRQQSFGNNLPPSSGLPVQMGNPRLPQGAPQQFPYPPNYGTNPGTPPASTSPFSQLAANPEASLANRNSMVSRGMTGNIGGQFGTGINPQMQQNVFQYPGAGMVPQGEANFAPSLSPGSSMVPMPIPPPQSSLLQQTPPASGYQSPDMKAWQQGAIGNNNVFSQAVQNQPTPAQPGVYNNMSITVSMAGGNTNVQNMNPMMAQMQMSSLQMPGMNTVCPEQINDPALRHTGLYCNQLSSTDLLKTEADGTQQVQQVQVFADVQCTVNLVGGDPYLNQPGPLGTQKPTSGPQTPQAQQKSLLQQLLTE
Sequence of Peroxisome proliferator-activated receptor gamma/Nuclear receptor coactivator 2 (P37231 whole entry): as the sequence (P37231 whole entry) above
Sequence of Peroxisome proliferator-activated receptor gamma/Nuclear receptor coactivator 2 (Q15596 whole entry, further chain): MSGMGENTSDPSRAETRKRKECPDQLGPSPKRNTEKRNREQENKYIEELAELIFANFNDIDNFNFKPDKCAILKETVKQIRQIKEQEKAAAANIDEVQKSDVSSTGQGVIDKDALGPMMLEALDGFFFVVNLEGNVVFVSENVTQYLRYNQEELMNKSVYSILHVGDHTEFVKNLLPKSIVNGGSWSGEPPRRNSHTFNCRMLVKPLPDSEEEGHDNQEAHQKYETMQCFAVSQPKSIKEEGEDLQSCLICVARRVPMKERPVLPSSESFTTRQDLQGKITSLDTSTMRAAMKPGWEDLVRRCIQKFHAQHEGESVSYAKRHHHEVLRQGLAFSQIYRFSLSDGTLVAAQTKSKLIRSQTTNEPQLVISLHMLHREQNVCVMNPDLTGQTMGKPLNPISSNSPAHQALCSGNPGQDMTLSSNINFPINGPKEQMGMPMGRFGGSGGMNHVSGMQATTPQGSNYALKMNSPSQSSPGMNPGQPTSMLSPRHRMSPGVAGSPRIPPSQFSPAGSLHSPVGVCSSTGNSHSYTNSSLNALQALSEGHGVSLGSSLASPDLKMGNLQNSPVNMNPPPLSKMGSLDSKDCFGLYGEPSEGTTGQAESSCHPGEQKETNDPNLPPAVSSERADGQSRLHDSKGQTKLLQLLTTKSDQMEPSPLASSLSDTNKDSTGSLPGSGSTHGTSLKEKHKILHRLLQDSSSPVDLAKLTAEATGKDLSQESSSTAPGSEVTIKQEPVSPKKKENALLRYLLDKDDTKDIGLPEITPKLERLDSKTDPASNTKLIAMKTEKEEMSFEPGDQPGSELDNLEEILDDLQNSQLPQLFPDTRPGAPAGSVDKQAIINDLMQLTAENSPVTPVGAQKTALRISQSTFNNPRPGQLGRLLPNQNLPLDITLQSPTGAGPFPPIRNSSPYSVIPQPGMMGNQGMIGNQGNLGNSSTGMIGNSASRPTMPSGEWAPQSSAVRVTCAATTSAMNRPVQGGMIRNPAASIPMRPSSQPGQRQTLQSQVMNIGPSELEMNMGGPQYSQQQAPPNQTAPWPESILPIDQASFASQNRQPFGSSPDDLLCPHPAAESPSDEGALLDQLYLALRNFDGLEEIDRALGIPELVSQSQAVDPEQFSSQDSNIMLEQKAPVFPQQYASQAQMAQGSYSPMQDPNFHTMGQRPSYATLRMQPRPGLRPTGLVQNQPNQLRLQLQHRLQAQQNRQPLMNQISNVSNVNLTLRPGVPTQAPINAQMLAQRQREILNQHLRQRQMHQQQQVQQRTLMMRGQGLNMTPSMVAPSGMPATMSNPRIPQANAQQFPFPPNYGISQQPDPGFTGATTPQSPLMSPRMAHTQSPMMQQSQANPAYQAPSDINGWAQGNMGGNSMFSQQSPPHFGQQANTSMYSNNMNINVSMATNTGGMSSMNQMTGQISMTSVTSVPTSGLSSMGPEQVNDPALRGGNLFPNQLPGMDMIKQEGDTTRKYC
Sequence of Luciferin 4-monooxygenase (P08659 whole entry): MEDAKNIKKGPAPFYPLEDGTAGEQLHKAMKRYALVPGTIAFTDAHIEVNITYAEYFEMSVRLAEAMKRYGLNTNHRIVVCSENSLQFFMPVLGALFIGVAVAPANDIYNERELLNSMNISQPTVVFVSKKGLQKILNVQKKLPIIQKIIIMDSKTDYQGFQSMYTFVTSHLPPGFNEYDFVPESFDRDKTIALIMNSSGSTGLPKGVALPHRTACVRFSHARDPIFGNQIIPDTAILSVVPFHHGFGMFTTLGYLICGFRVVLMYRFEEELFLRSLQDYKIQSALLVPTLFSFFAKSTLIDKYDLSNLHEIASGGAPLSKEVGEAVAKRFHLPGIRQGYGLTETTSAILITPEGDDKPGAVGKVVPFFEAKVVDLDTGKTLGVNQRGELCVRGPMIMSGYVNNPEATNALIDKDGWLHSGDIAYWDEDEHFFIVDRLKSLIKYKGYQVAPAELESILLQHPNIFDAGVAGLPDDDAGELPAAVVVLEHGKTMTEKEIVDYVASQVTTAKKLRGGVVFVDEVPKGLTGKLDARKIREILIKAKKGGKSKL
Sequence of Paired box protein Pax-8 (Q06710 whole entry): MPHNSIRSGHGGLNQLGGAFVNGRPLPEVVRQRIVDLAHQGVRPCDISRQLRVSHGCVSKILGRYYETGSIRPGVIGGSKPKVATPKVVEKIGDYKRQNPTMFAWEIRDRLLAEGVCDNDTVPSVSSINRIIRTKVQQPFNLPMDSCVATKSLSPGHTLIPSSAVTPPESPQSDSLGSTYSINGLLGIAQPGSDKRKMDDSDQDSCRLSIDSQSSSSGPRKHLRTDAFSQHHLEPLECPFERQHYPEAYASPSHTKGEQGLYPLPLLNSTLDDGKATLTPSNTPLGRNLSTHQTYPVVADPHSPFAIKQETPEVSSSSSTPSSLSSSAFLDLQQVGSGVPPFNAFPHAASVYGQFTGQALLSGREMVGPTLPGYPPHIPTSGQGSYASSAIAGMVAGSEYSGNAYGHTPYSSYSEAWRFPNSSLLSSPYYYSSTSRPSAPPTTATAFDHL

In the case of `Fc1ccc(Nc2cncc(-c3ccsc3)c2)cc1Cl`, the IC50 [1] is reported as 13.6 µM (inactive).
For `CCn1nc(C)c(NC(=O)Nc2cccc(Cl)c2Cl)c1C`, the EC50 [2] was > 53 µM (inactive), the IC50 [3] was 36.7 µM (active) and the IC50 [4] was 11 µM (active).
For `Cc1ccccc1S(=O)(=O)Nc1nc2ccccc2nc1N1CCOCC1`, the EC50 [5] was 11.8 µM (not active), the EC50 [6] was 10.1 µM (inactive) and the EC50 [7] was > 79.4 µM (not active).
For `Fc1ccccc1CSc1ncnc2c1oc1ccccc12`, the EC50 [5] was 20 µM (not active), the EC50 [6] was 44.1 µM (inactive) and the EC50 [7] was > 79.4 µM (not active).
For `CCOc1ccc(C(=O)O/N=C(\N)c2ccccn2)cc1`, the EC50 [8] was 499 nM (active), the EC50 [9] was 847 nM (active) and the AC50 [10] was 34.9 µM (active). For the same molecule, the AC50 [11] was 7.43 µM (active).
For `Cc1ccc(S(=O)(=O)Nc2ccc3cc([N+](=O)[O-])ccc3c2[N+](=O)[O-])cc1`, the EC50 [2] was > 53 µM (inactive), the AC50 [12] was 14.9 µM (active) and the IC50 [3] was 6.45 µM (active). For the same molecule, the IC50 [4] was 15 µM (active).
With `Cc1cc(O)nc(SCC(=O)Nc2ccc(Br)cc2)c1C#N` the EC50 [13] was 20.1 µM (active), the EC50 [14] was 6.89 µM (active) and the IC50 [4] was 15.4 µM (active).
For `COc1ccc(N(CC(=O)NCCSCc2ccc(Cl)cc2)S(C)(=O)=O)cc1Cl`, the AC50 [15] was 6.47 µM (active), the AC50 [16] was 2.9 µM (active) and the AC50 [17] was 5.7 µM (active). For the same molecule, the AC50 [18] was 4.11 µM (active).
For `COc1cc(/C=N/N2C(=O)CSC2=S)cc(Br)c1O`, the IC50 [19] was 107 µM (active) and the IC50 [20] was 12.8 µM (active).
With `COc1ccccc1C1CC(c2ccccc2)=NN1C(S)=Nc1ccccc1` (configuration not stated) the EC50 [5] was 10.6 µM (not active), the EC50 [6] was 9.45 µM (active) and the EC50 [7] was 80.4 µM (not active).
With `Cc1ccc(SCc2noc(-c3c(C)noc3C)n2)cc1` the EC50 [2] was > 53 µM (inactive), the IC50 [3] was < 0.368 µM (active) and the IC50 [4] was > 20 µM (inactive).
With `C[C@H](CO)N1C[C@H](C)[C@H](CN(C)S(=O)(=O)c2ccccc2)Oc2ccc(NC(=O)Nc3ccccc3)cc2CC1=O` the AC50 [15] was 3 µM (active), the AC50 [16] was < 0.26 µM (active) and the AC50 [18] was 0.414 µM (active).
With `CCCCCCOc1ccc(OC(=O)c2ccncc2)cc1` the AC50 [16] was 4.71 µM (active), the AC50 [17] was 5.4 µM (active) and the AC50 [18] was 44.6 µM (active). The AC50 [21] was 3.67 µM (active).
In the case of `CC(=O)C1=C(C)N(Cc2ccc(Br)cc2)C(=S)NC1c1cccc(Cl)c1` (configuration not stated), the AC50 [15] is reported as 28.4 µM (active), the AC50 [16] is reported as 4.14 µM (active) and the AC50 [17] is reported as 10 µM (active). For the same molecule, the AC50 [18] was 6.83 µM (active).
For `COc1ccccc1OCC(=O)Nc1nnc(-c2ccco2)s1`, the EC50 [5] was 32.1 µM (not active), the EC50 [6] was 42.4 µM (inactive) and the EC50 [7] was > 79.4 µM (not active).
